Source: ChEMBL document CHEMBL3046441, “Importance of physicochemical properties for the design of new pesticides” (J Agric Food Chem, 2011)

Experiments:
[1] = target: T1, Nicotinic acetylcholine receptor alpha8 subunit (Periplaneta americana) (UniProt H6TY12); assay: Neuroblocking activity in Periplaneta americana (American cockroach) nicotinic acetylcholine receptor in abdominal fifth and sixth ganglia nerve assessed as neuroblocking concentration by neurophysiological test
T1 sequence (whole entry): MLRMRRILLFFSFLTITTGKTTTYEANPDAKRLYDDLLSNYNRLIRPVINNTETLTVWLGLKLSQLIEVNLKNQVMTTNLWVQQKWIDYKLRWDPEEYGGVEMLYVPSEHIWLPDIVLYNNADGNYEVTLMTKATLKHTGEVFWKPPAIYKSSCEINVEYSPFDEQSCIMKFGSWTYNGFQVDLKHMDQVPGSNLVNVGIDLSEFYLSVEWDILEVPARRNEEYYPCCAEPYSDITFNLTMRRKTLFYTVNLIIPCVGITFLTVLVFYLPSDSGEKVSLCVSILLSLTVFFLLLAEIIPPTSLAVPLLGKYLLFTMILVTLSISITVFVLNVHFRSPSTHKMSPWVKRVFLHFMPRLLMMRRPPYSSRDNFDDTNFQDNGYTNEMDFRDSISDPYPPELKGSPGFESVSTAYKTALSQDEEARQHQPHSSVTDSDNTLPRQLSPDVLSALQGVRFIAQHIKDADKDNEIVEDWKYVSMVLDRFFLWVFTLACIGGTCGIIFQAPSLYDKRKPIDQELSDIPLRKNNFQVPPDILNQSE

Periplaneta americana = assay: Toxic effect in Periplaneta americana (American cockroach) assessed as paralyzed insects after 24 hr of abdomen compound injection by insecticidal assay; type: functional
[2] = Dissociation constant, pKa of the compound at pH 7.3; type: physicochemical
[3] = Hydrophobicity, log P of the compound in octanol-water by shaking-flask method; type: physicochemical
[4] = Apparent hydrophobicity, log D of the compound in Octanol-buffer; type: physicochemical; conditions: for logD: octanol/buffer; for logD(app): octanol/water

Row | SMILES | pKa [2] | logD [4] | further results
1 | O=[N+]([O-])/C=C1\NCCN1Cc1ccc(Cl)nc1 | – | – | log(1/BC) [1]: 5.02; log(1/MLD) (Periplaneta americana): 10.19
2 | O=[N+]([O-])/N=C1\NCCCN1Cc1ccc(Cl)nc1 | – | – | log(1/BC) [1]: 5.35; log(1/MLD) (Periplaneta americana): 10.12
3 | O=[N+]([O-])/C=C1\SCCN1Cc1ccc(Cl)nc1 | – | – | log(1/BC) [1]: 6.19; log(1/MLD) (Periplaneta americana): 10.37
4 | CN1CCN(Cc2ccc(Cl)nc2)/C1=N/[N+](=O)[O-] | – | – | log(1/BC) [1]: 3.81; log(1/MLD) (Periplaneta americana): 8.62
5 | O=[N+]([O-])/N=c1\ccccn1Cc1ccc(Cl)nc1 | – | – | log(1/BC) [1]: 5.09; log(1/MLD) (Periplaneta americana): 9.99
6 | O=[N+]([O-])/N=c1\ccccn1Cc1cnc(Cl)s1 | – | – | log(1/BC) [1]: 5.75; log(1/MLD) (Periplaneta americana): 9.74
7 | O=[N+]([O-])/C=C1\CCCN1Cc1ccc(Cl)nc1 | – | – | log(1/BC) [1]: 6.43; log(1/MLD) (Periplaneta americana): 10.44
8 | O=[N+]([O-])/C=C1\NCCN1Cc1cnc(Cl)s1 | – | – | log(1/BC) [1]: 5.73; log(1/MLD) (Periplaneta americana): 10.24
9 | O=[N+]([O-])/N=C1\SCCN1Cc1cnc(Cl)s1 | – | – | log(1/BC) [1]: 6; log(1/MLD) (Periplaneta americana): 8.91
10 | O=[N+]([O-])/C=C1\CCCN1Cc1cnc(Cl)s1 | – | – | log(1/BC) [1]: 6.31; log(1/MLD) (Periplaneta americana): 10.06
11 | CN1CCN(Cc2ccc(Cl)nc2)/C1=C/[N+](=O)[O-] | – | – | log(1/BC) [1]: 3.84; log(1/MLD) (Periplaneta americana): 8.07
12 | O=[N+]([O-])/N=c1\[nH]ccn1Cc1cnc(Cl)s1 | – | – | log(1/BC) [1]: 4.61; log(1/MLD) (Periplaneta americana): 8.82
13 | O=[N+]([O-])/N=c1\sccn1Cc1cnc(Cl)s1 | – | – | log(1/BC) [1]: 5.79; log(1/MLD) (Periplaneta americana): 8.85
14 | COc1ccc(CCN(C)CCCC(C#N)(c2ccc(OC)c(OC)c2)C(C)C)cc1OC (stereo not given) | 1.36 | – | –
15 | O=[N+]([O-])/N=c1\sccn1Cc1ccc(Cl)nc1 | – | – | log(1/BC) [1]: 5.68; log(1/MLD) (Periplaneta americana): 10.25
16 | CCCC(=O)Nc1ccc(OCC(O)CNC(C)C)c(C(C)=O)c1 (stereo not given) [ACEBUTOLOL] | 2.11 | – | –
17 | CC(=O)Nc1ccc(O)cc1 [ACETAMINOPHEN] | 0 | – | –
18 | C=CCc1ccccc1OCC(O)CNC(C)C (stereo not given) [ALPRENOLOL] | – | 1.35 | logP [3]: 2.89
19 | Cc1c(N(C)C)c(=O)n(-c2ccccc2)n1C [AMINOPYRINE] | 0 | – | –
20 | Cc1cc(=O)n(-c2ccccc2)n1C [ANTIPYRINE] | 0 | – | –
21 | CCNc1nc(Cl)nc(NC(C)C)n1 [ATRAZINE] | – | 2.61 | –
22 | CC(C)N1C(=O)c2ccccc2NS1(=O)=O [BENTAZON] | – | – | logP [3]: 2.8

Row | SMILES | pKa [2] | logD [4] | further results
23 | CCOP(=S)(NC(C)CC)Oc1cc(C)ccc1[N+](=O)[O-] (stereo not given) [BUTAMIFOS] | 0 | 4.62 | –
24 | O=C(N[C@H](CO)[C@H](O)c1ccc([N+](=O)[O-])cc1)C(Cl)Cl [CHLORAMPHENICOL] | 0 | – | –
25 | Cc1cc(C)cc(C(=O)N(NC(=O)c2ccc3c(c2C)CCCO3)C(C)(C)C)c1 [CHROMAFENOZIDE] | – | 2.7 | –
26 | Clc1cccc(Cl)c1N=C1NCCN1 [CLONIDINE] | 0.75 | 0.93 | –
27 | C[C@]12C[C@H](O)[C@H]3[C@@H](CCC4=CC(=O)CC[C@@]43C)[C@@H]1CC[C@@H]2C(=O)CO [CORTICOSTERONE] | 0 | 1.94 | –
28 | O=c1ccc2ccccc2o1 [COUMARIN] | 0 | – | –
29 | O=[N+]([O-])Nc1nccn1Cc1ccc(Cl)nc1 [DEHYDROIMIDACLOPRID] | – | – | log(1/BC) [1]: 4.31; log(1/MLD) (Periplaneta americana): 8.72
30 | C[C@@H]1C[C@H]2[C@@H]3CCC4=CC(=O)C=C[C@]4(C)[C@@]3(F)[C@@H](O)C[C@]2(C)[C@@]1(O)C(=O)CO [DEXAMETHASONE] | 0 | 2.01 | –
31 | COc1ccc([C@@H]2Sc3ccccc3N(CCN(C)C)C(=O)[C@@H]2OC(C)=O)cc1 [DILTIAZEM] | 0.76 | 2.29 | –
32 | CCOP(=S)(OCC)Oc1cc(C)nc(C(C)C)n1 [DIMPYLATE] | – | 3.3 | –
33 | COP(=S)(OC)Oc1ccc([N+](=O)[O-])c(C)c1 [FENITROTHION] | 0 | 3.3 | –
34 | CCC(C)c1ccccc1OC(=O)NC (stereo not given) [FENOBUCARB] | 0 | 2.78 | –
35 | COP(=S)(OC)Oc1ccc(SC)c(C)c1 [FENTHION] | 0 | 4.09 | –
36 | CC(C)(C)N(NC(=O)c1ccc(Cl)cc1)C(=O)c1ccccc1 [HALOFENOZIDE] | 0 | 3.22 | –
37 | C[C@]12CCC(=O)C=C1CC[C@@H]1[C@@H]2[C@@H](O)C[C@@]2(C)[C@H]1CC[C@]2(O)C(=O)CO [HYDROCORTISONE] | 0 | 1.61 | –
38 | CC(C)Cc1ccc(C(C)C(=O)O)cc1 (stereo not given) [IBUPROFEN] | – | 1.54 | –
39 | O=[N+]([O-])/N=C1\NCCN1Cc1ccc(Cl)nc1 [IMIDACLOPRID] | – | – | log(1/BC) [1]: 5.64; log(1/MLD) (Periplaneta americana): 10.15
40 | O=[N+]([O-])NC1=NCCN1Cc1ccc(Cl)nc1 [IMIDACLOPRID] | 0 | 0.59 | –
41 | O=[N+]([O-])/N=C1\NCCN1Cc1cnc(Cl)s1 [IMIDACLOTHIZ] | – | – | log(1/BC) [1]: 5.97; log(1/MLD) (Periplaneta americana): 9.62
42 | CC(C)c1cc(NC(=O)N(C)C)no1 [ISOURON] | – | – | logP [3]: 1.98
43 | CC(C(=O)O)c1cccc(C(=O)c2ccccc2)c1 (stereo not given) [KETOPROFEN] | – | 1.1 | –
44 | CC(CCc1ccccc1)NCC(O)c1ccc(O)c(C(N)=O)c1 (stereo not given) [LABETALOL] | 2.1 | 1.68 | –

Row | SMILES | pKa [2] | logD [4] | further results
45 | COc1nn(CSP(=S)(OC)OC)c(=O)s1 [METHIDATHION] | 0 | 2.5 | –
46 | COc1cccc(C(=O)NN(C(=O)c2cc(C)cc(C)c2)C(C)(C)C)c1C [METHOXYFENOZIDE] | 0 | 3.7 | –
47 | COCCc1ccc(OCC(O)CNC(C)C)cc1 (stereo not given) [METOPROLOL] | – | 0.24 | –
48 | CC(C)(C)NCC(O)COc1cccc2c1CC(O)C(O)C2 (stereo not given) [NADOLOL] | 2.37 | -0.88 | –
49 | CCn1cc(C(=O)O)c(=O)c2cc(F)c(N3CCNCC3)cc21 [NORFLOXACIN] | 2.08 | – | logD(app) [4]: -2.42
50 | C=CCOc1ccccc1OCC(O)CNC(C)C (stereo not given) [OXPRENOLOL] | 2.3 | 0.56 | –
51 | CCOC(=O)C(SP(=S)(OC)OC)c1ccccc1 (stereo not given) [PHENTHOATE] | 0 | 3.96 | logP [3]: 3.96
52 | O=C1NC(=O)C(c2ccccc2)(c2ccccc2)N1 [PHENYTOIN] | – | 2.26 | –
53 | CC(C)NCC(O)COc1cccc2[nH]ccc12 (stereo not given) [PINDOLOL] | 2.24 | 0.25 | –
54 | CN1CCN(CC(=O)N2c3ccccc3C(=O)Nc3cccnc32)CC1 [PIRENZEPINE] | 0.7 | – | logD(app) [4]: -0.37
55 | CN1C(C(=O)Nc2ccccn2)=C(O)c2ccccc2S1(=O)=O [PIROXICAM] | – | 0.49 | –
56 | CC(=O)Nc1ccc(OCC(O)CNC(C)C)cc1 (stereo not given) [PRACTOLOL] | 2.1 | -0.62 | –
57 | C[C@]12C=CC(=O)C=C1CC[C@@H]1[C@@H]2[C@@H](O)C[C@@]2(C)[C@H]1CC[C@]2(O)C(=O)CO [PREDNISOLONE] | 0 | – | –
58 | CNC(=C[N+](=O)[O-])NCCSCc1ccc(CN(C)C)o1 [RANITIDINE] | 0.88 | – | logD(app) [4]: -0.32
59 | CC(C)(C)N(NC(=O)c1ccccc1)C(=O)c1ccccc1 [RH-5849] | 0 | 2.45 | –
60 | O=C(O)c1ccccc1O [SALICYLIC ACID] | – | -0.63 | –
61 | COP1(=S)OCc2ccccc2O1 (stereo not given) [SALITHION] | 0 | 2.67 | –
62 | CCc1ccc(C(=O)NN(C(=O)c2cc(C)cc(C)c2)C(C)(C)C)cc1 [TEBUFENOZIDE] | 0 | – | –
63 | Cc1c(F)c(F)c(COC(=O)[C@@H]2[C@H](/C=C(\Cl)C(F)(F)F)C2(C)C)c(F)c1F [TEFLUTHRIN] | – | – | logP [3]: 6
64 | C[C@]12CC[C@H]3[C@@H](CCC4=CC(=O)CC[C@@]43C)[C@@H]1CC[C@@H]2O [TESTOSTERONE] | 0 | – | –
65 | CCN(CC)C(=O)SCc1ccc(Cl)cc1 [THIOBENCARB] | 0 | 3.42 | –
66 | CCCN(CCC)c1c([N+](=O)[O-])cc(C(F)(F)F)cc1[N+](=O)[O-] [TRIFLURALIN] | – | – | logP [3]: 5.07
